# Legend:
# MRSA-1 = test: Time-kill study; format: cell-based, Staphylococcus aureus
# Method: Time-kill study: Compound 1o was tested for the time required to kill the bacterial strain MRSA-1. A time-kill assay was performed by the broth micro-dilution method in accordance with the CLSI guidelines. Inoculum suspensions with approximately 5×10^5 CFU/mL of exponentially growing bacterial cells were incubated in each well of a 96-well plate. […] Aliquots of 20 μL were removed from the inoculum culture after timed intervals of incubation (i.e. 0, 30 minutes, 1, 2, 4, 6, 8, and 24 hours), and serial 10-fold dilutions were prepared in 0.85% sodium chloride solution. Then, 10-100 μL of each dilution (as appropriate) were spread on the surface of Mueller-Hinton agar plates and incubated at 37° C. for 24 hours. Plate count technique was used to determine the number of viable cells for each time point. The experiments were performed in triplicate. Meropenem and ciprofloxacin were used as quality control antibiotics.
# [1] = test system: UDH-1 (environmental isolate, S. saprophyticus); test: MIC by broth microdilution; format: cell-based; conditions: Staphylococcus saprophyticus; environmental isolate
# Method: (§1) Bacteria of the genus Staphylococcus were selected for MIC investigation due to its clinical importance. Compounds showing activity against S. aureus (ATCC 25923) were tested against 10 multidrug-resistant strains of Staphylococcus species, including: clinical isolates methicillin-resistant Staphylococcus aureus (MRSA) strains MRSA-1, MRSA-2, and MRSA-3, and environmental isolates S. saprophyticus (strains UDH-1, UDH-2, UDH-3 and UDH-4), S. haemolyticus (strains UDH-6 and UDH-7), and S. epidermidis strain UDH-5.
# (§2) All these strains were resistant to at least three antibiotics from different classes, as confirmed by a disk diffusion assay.
# (§3) A broth microdilution method was used to measure MIC according to the Clinical and Laboratory Standards Institute guidelines. Two-fold serial dilutions of the test compound (8 concentrations ranged between 100-0.78 μg/mL) were tested. Two reference antibiotics were used as quality controls (ciprofloxacin and amikacin). In each experiment, solvent (DMSO) was used as a negative control, un-treated control (composing of bacteria in Mueller-Hinton broth) was used as a growth control, blank (culture media alone) was used as sterility control. The 96-well microplate with the test compounds was incubated for 20 hours at 37° C. Turbidity in wells indicated bacterial growth. […] For the definite determination of MIC, CellTiter-Blue® Cell Viability Assay (Promega, USA) was used (as above). The MIC was defined as the lowest compound concentration that prevented the color change of the Cell Viability solution (absence of bacterial growth; thus, suspension remained blue in color). For the definite determination of MIC, CellTiter-Blue® Cell Viability Assay (Promega, USA) was used (as above). To each well of the 96-well microplate, 20 μL of the Cell Viability Assay solution was added to the overnight (20 hours culture) and incubated at 37° C. for 4 hours. After the end of the incubation, pink and blue colors were used to differentiate viable from dead bacterial suspensions, respectively. The MIC was defined as the lowest compound concentration that prevented the color change.
# [2] = test system: UDH-7 (environmental isolate, S. haemolyticus); test: MIC by broth microdilution; format: cell-based; conditions: Staphylococcus haemolyticus; environmental isolate
# Method: as §1, §2, §3
# [3] = test system: UDH-4 (environmental isolate, S. saprophyticus); test: MIC by broth microdilution; format: cell-based; conditions: Staphylococcus saprophyticus
# Method: as §1, §2, §3
# [4] = test system: UDH-2 (environmental isolate, S. saprophyticus); test: MIC by broth microdilution; format: cell-based; conditions: Staphylococcus saprophyticus
# Method: as §1, §2, §3
# [5] = test system: UDH-6 (environmental isolate, S. haemolyticus); test: MIC by broth microdilution; format: cell-based; conditions: Staphylococcus haemolyticus; environmental isolate
# Method: as §1, §2, §3
# [6] = test system: UDH-5 (environmental isolate, S. epidermidis); test: MIC by broth microdilution; format: cell-based; conditions: Staphylococcus epidermidis
# Method: as §1, §2, §3
# [7] = test system: UDH-3 (environmental isolate, S. saprophyticus); test: MIC by broth microdilution; format: cell-based; conditions: Staphylococcus saprophyticus; environmental isolate
# Method: as §1, §2, §3
# [8] = test system: Bacillus subtilis (environmental isolate); test: Cell viability assay (resazurin) screening for antibacterial activity; format: cell-based; design: key: Positive: A positive result indicates antibacterial activity expressed as growth inhibition; Negative: a negative result indicates no antibacterial activity expressed as bacterial growth at the tested concentration; conditions: single high concentration of 1 mg/mL
# [9] = test system: Escherichia coli (ATCC 25922); test: as above; format: cell-based; design: key: Positive: A positive result indicates antibacterial activity expressed as growth inhibition; Negative: a negative result indicates no antibacterial activity expressed as bacterial growth at the tested concentration; conditions: single high concentration of 1 mg/mL
# [10] = test system: Staphylococcus aureus (ATCC 25923); test: as above; format: cell-based; design: key: Positive: A positive result indicates antibacterial activity expressed as growth inhibition; Negative: a negative result indicates no antibacterial activity expressed as bacterial growth at the tested concentration; conditions: single high concentration of 1 mg/mL
# [11] = test system: MRSA-2 (clinical isolate, methicillin-resistant Staphylococcus aureus); test: MIC by broth microdilution; format: cell-based
# Method: (§4) Bacteria of the genus Staphylococcus were selected for MIC investigation due to its clinical importance.
# as §3, with “Two reference antibiotics were used as quality controls (ciprofloxacin and amikacin).” left out
# [12] = test system: MRSA-1 (clinical isolate, methicillin-resistant Staphylococcus aureus); test: MIC by broth microdilution; format: cell-based; conditions: Staphylococcus aureus, MRSA; clinical isolate
# Method: as §4
# as §3, with “Two reference antibiotics were used as quality controls (ciprofloxacin and amikacin).” left out
# [13] = test system: MRSA-3 (clinical isolate, methicillin-resistant Staphylococcus aureus); test: MIC by broth microdilution; format: cell-based
# Method: as §4
# as §3, with “Two reference antibiotics were used as quality controls (ciprofloxacin and amikacin).” left out
# S. aureus (ATCC 25923) = test: MIC by broth microdilution; format: cell-based; conditions: Staphylococcus aureus, ATCC25923
# Method: as §1, §3
# [14] = test system: Pseudomonas aeruginosa (ATCC 27853); test: Cell viability assay (resazurin) screening for antibacterial activity; format: cell-based; design: key: Positive: A positive result indicates antibacterial activity expressed as growth inhibition; Negative: a negative result indicates no antibacterial activity expressed as bacterial growth at the tested concentration; conditions: single high concentration of 1 mg/mL
# [15] = test system: Enterococcus faecalis (ATCC 29212); test: as above; format: cell-based; design: key: Positive: A positive result indicates antibacterial activity expressed as growth inhibition; Negative: a negative result indicates no antibacterial activity expressed as bacterial growth at the tested concentration; conditions: single high concentration of 1 mg/mL
SMILES,time of exposure at which killing was achieved (MRSA-1; 8 μg/mL),time of exposure at which killing was achieved (MRSA-1; 16 μg/mL),time of exposure at which killing was achieved (MRSA-1; 2-4 μg/mL),time of exposure at which killing was achieved (complete inhibition of bacterial growth) (MRSA-1; 32-64 μg/mL),MIC [1],MIC [2],MIC [3],MIC [4],MIC [5],MIC [6],MIC [7],"antibacterial activity, Bacillus subtilis [8]","antibacterial activity, Escherichia coli [9]","antibacterial activity, Staphylococcus aureus [10]",MIC [11],MIC [12],MIC [13],MIC (S. aureus (ATCC 25923)),"antibacterial activity, Pseudomonas aeruginosa [14]","antibacterial activity, Enterococcus faecalis [15]"
"C[C@@H](O)[C@H]1C(=O)N2C(C(=O)O)=C(S[C@@H]3CN[C@H](C(=O)N(C)C)C3)[C@H](C)[C@H]12 [meropenem, reference compound]",8 h,6 h,24 h,4 h,,,,,,,,,,,,,,,,
COC(=O)CC1COc2c(cc3c4c2CCCN4CCC3)-c2c(NC(C)(C)C)n3c(-c4cccc5c4OCCO5)csc3[n+]21 (stereo not shown) [Compound 1p],,,,,12.5 µg/mL,12.5 µg/mL,6.25 µg/mL,25 µg/mL,12.5 µg/mL,1.56 µg/mL,6.25 µg/mL,Positive,Negative,Positive,6.25 µg/mL,6.25 µg/mL,6.25 µg/mL,3.12 µg/mL,Negative,Positive
COC(=O)CC1COc2c(cc3c4c2CCCN4CCC3)-c2c(NC(C)(C)C)n3c(-c4ccc(OC)cc4)c(-c4ccc(OC)cc4)sc3[n+]21 (stereo not shown) [Compound 1z],,,,,12.5 µg/mL,12.5 µg/mL,3.12 µg/mL,6.25 µg/mL,12.5 µg/mL,1.56 µg/mL,12.5 µg/mL,Positive,Negative,Positive,6.25 µg/mL,6.25 µg/mL,6.25 µg/mL,3.12 µg/mL,Negative,Positive
CCOC(=O)c1sc2n(c(NC(C)(C)C)c3[n+]2C(CC(=O)OC)COc2c-3cc3c4c2CCCN4CCC3)c1-c1ccccc1 (stereo not shown) [Compound 1r],,,,,12.5 µg/mL,50 µg/mL,25 µg/mL,25 µg/mL,50 µg/mL,6.25 µg/mL,12.5 µg/mL,Positive,Negative,Positive,12.5 µg/mL,12.5 µg/mL,12.5 µg/mL,12.5 µg/mL,Negative,Positive

# From patent US10526343B2, “Heterocyclic systems and pharmaceutical applications thereof” (University of Sharjah, priority 2018, dated 2020)
